Laboratory results published in US12697315B2, “Treatment for interstitial lung disease” (United Therapeutics Corporation, priority 2020, dated 2026).

Test system: patients with interstitial lung disease and pulmonary hypertension
Assay: Pulmonary function tests (FVC, FEV1, TLC, DLCO), mixed model repeated measurement, INCREASE
Type: in vivo, human
Experimental: Subjects having underlying lung disease were treated with inhaled treprostinil over 16 weeks. Subjects initiated inhaled treprostinil or placebo at a dose of 3 breaths (18 mcg) 4 times daily (during waking hours). Study drug doses were maximized throughout the study. Dose escalations (additional 1 breath 4 times daily) could occur up to every 3 days with a target dosing regimen of 9 breaths (54 mcg) 4 times daily and a maximum dose of 12 breaths (72 mcg) 4 times daily, as clinically tolerated. Subjects were assessed during Screening and Baseline to determine eligibility for the study. Once eligible, 5 Treatment Phase visits to the clinic were required at Week 4, Week 8, Week 12, Week 15, and Week 16 (final study visit). An Early Termination (ET) Visit was conducted for subjects who discontinued prior to Week 16; all assessments planned for the final Week 16 Visit were conducted during the ET Visit, if applicable. Subjects were contacted at least weekly by telephone or email to assess tolerance to study drug, adverse events (AEs), and changes to concomitant medications.
Pulmonary function testing was initially conducted as a safety assessment (Safety Population) during the study. […] As a result, post hoc MMRM analyses of FVC data were performed for the ITT Population and are presented in Table 1 (ITT Population), Table 2 (by PH ILD Etiology of IIP) and Table 3 (for subjects with IPF), shown below.
The 6-minute walk test was performed and laboratory data were obtained at baseline and at weeks 4, 8, 12, and 16, or at the time of early discontinuation of treprostinil or placebo. Each 6-minute walk test was performed 10 to 60 minutes after the most recent dose of active drug or placebo, which is the time of peak plasma treprostinil exposure. A trough test was performed at week 15 at least 4 hours after the participant received a dose of treprostinil or placebo and at least 24 hours before the week 16 test. Pulse oximetry was performed immediately before, during, and after each 6-minute walk test. Measurement of N-terminal pro-B-type natriuretic peptide (NT-proBNP) levels and pulmonary function tests were performed at baseline and at weeks 8 and 16 (or at early discontinuation) after the patients recovered from the 6-minute walk test. The St. George's Respiratory Questionnaire (SGRQ), a quality-of-life measure, was completed at baseline and week 16 or at the time of early discontinuation.
LS Mean (SE); P-values; estimated difference (SE); and associated 95% CIs are from the mixed model repeated measurement with the change from Baseline in pulmonary function test parameter as the dependent variable; treatment, week, treatment by week interaction as the fixed effects; Baseline measurement as the covariate; and subject as the random effect. An unstructured variance/covariance structure shared across treatment groups was used to model the within-subject errors.

[1] = Week 8, subjects with IPF, listed as inhaled treprostinil
[2] = Week 16, subjects with IPF, listed as inhaled treprostinil

CCCCC[C@H](O)CC[C@@H]1[C@H]2Cc3cccc(OCC(=O)O)c3C[C@H]2C[C@H]1O [Inhaled treprostinil, treprostinil]
effect on any pulmonary function test variable during the trial (16-week trial): no deleterious effect | FVC (% predicted), Estimated Difference Inhaled treprostinil - Placebo (Week 8, ITT Population, MMRM): 1.79 % predicted | FVC (% predicted), LS Mean change from baseline (Week 8, ITT Population, MMRM): 0.77 % predicted | FVC (mL), Estimated Difference Inhaled treprostinil - Placebo (Week 8, ITT Population, MMRM): 28.47 mL | FVC (mL), LS Mean change from baseline (Week 8, ITT Population, MMRM): 5.49 mL | DLCO (% predicted), Estimated Difference Inhaled treprostinil − Placebo (Week 8, MMRM): 1.07 % predicted | DLCO (% predicted), LS Mean change from Baseline (Week 8, MMRM): −0.13 % predicted | DLCO (mL/min/mmHg), Estimated Difference Inhaled treprostinil − Placebo (Week 8, MMRM): 0.19 mL/min/mmHg | DLCO (mL/min/mmHg), LS Mean change from Baseline (Week 8, MMRM): −0.27 mL/min/mmHg | FEV1 (% predicted), Estimated Difference Inhaled treprostinil − Placebo (Week 8, MMRM): 0.57 % predicted | FEV1 (% predicted), LS Mean change from Baseline (Week 8, MMRM): −0.18 % predicted | FEV1 (mL), Estimated Difference Inhaled treprostinil − Placebo (Week 8, MMRM): -8.95 mL | FEV1 (mL), LS Mean change from Baseline (Week 8, MMRM): -21.34 mL | TLC (% predicted), Estimated Difference Inhaled treprostinil − Placebo (Week 8, MMRM): 0.28 % predicted | TLC (% predicted), LS Mean change from Baseline (Week 8, MMRM): −0.05 % predicted | TLC (mL), Estimated Difference Inhaled treprostinil − Placebo (Week 8, MMRM): -16.23 mL | TLC (mL), LS Mean change from Baseline (Week 8, MMRM): -38.75 mL | FVC (% predicted), Estimated Difference Inhaled treprostinil - Placebo (Week 8, PH-ILD etiology IIP): 1.95 % predicted | FVC (% predicted), LS Mean change from baseline (Week 8, PH-ILD etiology IIP): 0.92 % predicted | FVC (mL), Estimated Difference Inhaled treprostinil - Placebo (Week 8, PH-ILD etiology IIP): 46.48 mL | FVC (mL), LS Mean change from baseline (Week 8, PH-ILD etiology IIP): 9.27 mL | FVC (% predicted), Estimated Difference Inhaled treprostinil - Placebo (Week 8, subjects with IPF): 2.543 % predicted | FVC (% predicted), LS Mean change from baseline (Week 8, subjects with IPF): 1.60 % predicted | FVC (mL), Estimated Difference Inhaled treprostinil - Placebo (Week 8, subjects with IPF): 84.522 mL | FVC (mL), LS Mean change from baseline (Week 8, subjects with IPF): 41.69 mL | FVC (% predicted), Estimated Difference Inhaled treprostinil - Placebo [1]: 2.54 % predicted | FVC (mL), Estimated Difference Inhaled treprostinil - Placebo [1]: 84.52 mL | FVC (% predicted), Estimated Difference Inhaled treprostinil - Placebo (Week 16, ITT Population, MMRM): 1.80 % predicted | FVC (% predicted), LS Mean change from baseline (Week 16, ITT Population, MMRM): 1.07 % predicted | FVC (mL), Estimated Difference Inhaled treprostinil - Placebo (Week 16, ITT Population, MMRM): 44.40 mL | FVC (mL), LS Mean change from baseline (Week 16, ITT Population, MMRM): 9.77 mL | DLCO (% predicted), Estimated Difference Inhaled treprostinil − Placebo (Week 16, MMRM): 0.60 % predicted | DLCO (% predicted), LS Mean change from Baseline (Week 16, MMRM): −1.14 % predicted | DLCO (mL/min/mmHg), Estimated Difference Inhaled treprostinil − Placebo (Week 16, MMRM): 0.02 mL/min/mmHg | DLCO (mL/min/mmHg), LS Mean change from Baseline (Week 16, MMRM): −0.61 mL/min/mmHg | FEV1 (% predicted), Estimated Difference Inhaled treprostinil − Placebo (Week 16, MMRM): 0.38 % predicted | FEV1 (% predicted), LS Mean change from Baseline (Week 16, MMRM): −0.24 % predicted | FEV1 (mL), Estimated Difference Inhaled treprostinil − Placebo (Week 16, MMRM): -2.56 mL | FEV1 (mL), LS Mean change from Baseline (Week 16, MMRM): -32.18 mL | TLC (% predicted), Estimated Difference Inhaled treprostinil − Placebo (Week 16, MMRM): 1.49 % predicted | TLC (% predicted), LS Mean change from Baseline (Week 16, MMRM): 2.52 % predicted | TLC (mL), Estimated Difference Inhaled treprostinil − Placebo (Week 16, MMRM): 17.37 mL | TLC (mL), LS Mean change from Baseline (Week 16, MMRM): 45.43 mL | FVC (% predicted), Estimated Difference Inhaled treprostinil - Placebo (Week 16, PH-ILD etiology IIP): 2.88 % predicted | FVC (% predicted), LS Mean change from baseline (Week 16, PH-ILD etiology IIP): 1.66 % predicted | FVC (mL), Estimated Difference Inhaled treprostinil - Placebo (Week 16, PH-ILD etiology IIP): 108.18 mL | FVC (mL), LS Mean change from baseline (Week 16, PH-ILD etiology IIP): 22.16 mL | FVC (% predicted), median improvement (Week 16, Safety Population): 1.0% | FVC (% predicted), Estimated Difference Inhaled treprostinil - Placebo (Week 16, subjects with IPF): 3.504 % predicted | FVC (% predicted), LS Mean change from baseline (Week 16, subjects with IPF): 1.62 % predicted | FVC (mL), Estimated Difference Inhaled treprostinil - Placebo (Week 16, subjects with IPF): 168.524 mL | FVC (mL), LS Mean change from baseline (Week 16, subjects with IPF): 38.24 mL | FVC (% predicted), Estimated Difference Inhaled treprostinil - Placebo [2]: 3.50 % predicted | FVC (mL), Estimated Difference Inhaled treprostinil - Placebo [2]: 168.52 mL
